Like-named read-outs stand apart in the source and are kept apart here. Where a SMILES comes first, the peptide text is derived from it. Bridges are numbered along the chain shown (N, C = ends). [ ]: non-standard residue; d: D form. The star is where a group is joined. DOTA = O=C(O)CN1CCN(CC(=O)O)CCN(CC(=O)*)CCN(CC(=O)O)CC1; Phe(3-Cl) = N[C@@H](Cc1cccc(Cl)c1)C(=O)O; 2Nal = N[C@@H](Cc1ccc2ccccc2c1)C(=O)O; Hyp = O=C(O)[C@@H]1C[C@@H](O)CN1; hArg = N=C(N)NCCCC[C@H](N)C(=O)O; NMeE = CN[C@@H](CCC(=O)O)C(=O)O; Pentanoyl(4-Me) = CC(C)CCC(=O)*; Cha = N[C@@H](CC1CCCCC1)C(=O)O; Cit = NC(=O)NCCC[C@H](N)C(=O)O; Butoxycarbonyl = CCCCOC(=O)*; Pip = O=C(O)[C@@H]1CCCCN1; Api = NC1(C(=O)O)CCNCC1; Dab = NCC[C@H](N)C(=O)O; Nva = CCC[C@H](N)C(=O)O; Pentanoyl = CCCCC(=O)*
How the values were obtained:
[1] = target: T1, human uPAR (uPAR-Fc) (Homo sapiens, UniProt Q03405); assay: Surface plasmon resonance (SPR) assay, single cycle kinetics; assay type: binding; conditions: pKD category for uPAR SPR activity assay, uPAR-Fc on Protein A-Chip, 25°C, read-out: pKD CAT (converted)
T1 construct: comprising amino acids Leu23-Arg303 according to UniProt entry Q03405.1; purchased R&D Systems 10378-UK-100
Summary of the method: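 uPAR-Fc (Leu23-Arg303 extracellular domains, human IgG1 Fc) captured on Protein A chip to ~2000 RU; single-cycle kinetics at 25°C in HEPES running buffer pH 7.4 with 0.1% DMSO. KD from double-referenced sensorgrams fitted to 1:1 Langmuir model, reported as pKD.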

[2] = target: T2, uPAR-expressing HEC-265 human endometrial adenocarcinoma cells (Homo sapiens, UniProt Q03405); assay: Competitive FACS binding assay; conditions: pIC50 category of FACS binding
T2 construct: Cell surface uPAR-expressing HEC-265 human endometrial adenocarcinoma cells; host or cells: HEC-265
Summary of the method: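 HEC-265 cells incubated 1 h at 4 °C with 10 nM biotinylated uPAR peptide tracer plus increasing test compound, then stained with APC-streptavidin on ice. Median APC fluorescence by flow cytometry; 4PL fit gives pIC50.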

T1 sequence (Q03405 23-303): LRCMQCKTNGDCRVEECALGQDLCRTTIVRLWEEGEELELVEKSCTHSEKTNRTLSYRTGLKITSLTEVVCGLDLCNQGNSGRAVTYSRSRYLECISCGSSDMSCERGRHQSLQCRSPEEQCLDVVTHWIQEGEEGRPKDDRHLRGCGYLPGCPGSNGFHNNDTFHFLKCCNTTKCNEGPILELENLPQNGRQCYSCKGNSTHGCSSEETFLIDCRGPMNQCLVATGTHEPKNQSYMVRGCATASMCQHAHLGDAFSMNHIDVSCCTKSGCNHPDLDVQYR
T2 sequence (Q03405 23-335): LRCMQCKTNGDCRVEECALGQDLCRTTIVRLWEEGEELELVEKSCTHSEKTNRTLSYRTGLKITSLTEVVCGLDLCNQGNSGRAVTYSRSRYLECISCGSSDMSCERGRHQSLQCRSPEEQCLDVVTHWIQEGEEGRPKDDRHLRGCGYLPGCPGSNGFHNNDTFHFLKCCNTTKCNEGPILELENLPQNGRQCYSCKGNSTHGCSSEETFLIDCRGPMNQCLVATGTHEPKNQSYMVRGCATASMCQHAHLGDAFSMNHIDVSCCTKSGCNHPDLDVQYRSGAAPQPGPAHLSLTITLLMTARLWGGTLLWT

Row | Kd [1] [nM] | IC50 [2] [nM] | Kd ([1]; single cycle kinetics) [nM] | SMILES
1 | < 1.58 | ≤ 10 | – | CCCCC(=O)N[C@H]1CSSC[C@@H](C(N)=O)NC(=O)[C@H](CCC)NC(=O)[C@H]([C@@H](C)CC)NC(=O)[C@@H]2C[C@@H](O)CN2C(=O)[C@@H]2CCCN2C(=O)[C@H](Cc2ccccc2)NC(=O)[C@H](Cc2ccc3ccccc3c2)NC(=O)[C@H](CCC(N)=O)NC(=O)[C@H](CCCNC(=N)N)NC1=O [UPAR-259, Pent-[Cys-Arg-Gln-2Ni-Phe-Pro-Hyp-Ile-Nva-Cys]-NH2] (Pentanoyl-CRQ[2Nal]FP[Hyp]I[Nva]C-NH2; disulfide 1-10)
2 | 1.58 to 10 | ≤ 10 | – | CC[C@H](C)[C@@H]1NC(=O)[C@@H](C)NC(=O)[C@@H]2CCCN2C(=O)[C@H](Cc2ccccc2)NC(=O)[C@H](Cc2ccc(O)cc2)NC(=O)[C@H](C)NC(=O)[C@H](CCCNC(N)=O)NC(=O)[C@@H](NC(=O)CCC(C)C)CSSC[C@@H](C(N)=O)NC(=O)[C@H](CC(C)C)NC1=O [UPAR-339, iHex-[Cys-Cit-Ala-Tyr-Phe-Pro-ala-Ile-Leu-Cys]-NH2] ({Pentanoyl(4-Me)}-C[Cit]AYFP[dA]ILC-NH2; disulfide 1-10)
3 | > 100 | ≥ 126 | – | CCCCC(=O)N[C@H]1CSSC[C@@H](C(N)=O)NC(=O)[C@H](CCC)NC(=O)[C@H]([C@@H](C)CC)NC(=O)[C@H](CCC(=O)O)N(C)C(=O)[C@@H]2CCCN2C(=O)[C@H](Cc2ccccc2)NC(=O)[C@H](Cc2ccc(O)cc2)NC(=O)[C@H](CCCCNC(=O)CN2CCN(CC(=O)O)CCN(CC(=O)O)CCN(CC(=O)O)CC2)NC(=O)[C@H](CCCNC(N)=O)NC1=O [UPAR-327, Pent-[Cys-Cit-Lys(DOTA)-Tyr-Phe-Pro-Nme-Ile-Nva-Cys]-NH2] (Pentanoyl-C[Cit]K(DOTA)YFP[NMeE]I[Nva]C-NH2; disulfide 1-10)
4 | 1.58 to 10 | ≤ 10 | – | CC[C@H](C)[C@@H]1NC(=O)[C@@H](C)NC(=O)[C@@H]2CCCCN2C(=O)[C@H](Cc2ccccc2)NC(=O)[C@H](Cc2ccc(O)cc2)NC(=O)[C@H](CCC(N)=O)NC(=O)[C@H](CCCNC(N)=O)NC(=O)[C@@H](NC(=O)CCC(C)C)CSSC[C@@H](C(N)=O)NC(=O)[C@H](CC(C)C)NC1=O [UPAR-232, iHex-[Cys-Cit-Gln-Tyr-Phe-Pip-ala-Ile-Leu-Cys]-NH2] ({Pentanoyl(4-Me)}-C[Cit]QYF[Pip][dA]ILC-NH2; disulfide 1-10)
5 | > 100 | ≥ 126 | – | CC[C@H](C)[C@@H]1NC(=O)[C@@H](C)NC(=O)[C@@H]2CCCN2C(=O)[C@H](Cc2ccccc2)NC(=O)[C@H](Cc2ccc(O)cc2)NC(=O)[C@H](CCC(N)=O)NC(=O)[C@@H](CCCCNC(=O)CN2CCN(CC(=O)O)CCN(CC(=O)O)CCN(CC(=O)O)CC2)NC(=O)[C@@H](NC(=O)CCC(C)C)CSSC[C@@H](C(N)=O)NC(=O)[C@H](CC(C)C)NC1=O [UPAR-130, iHex-[Cys-lys(DOTA)-Gln-Tyr-Phe-Pro-ala-Ile-Leu-Cys]-NH2] ({Pentanoyl(4-Me)}-C[dK](DOTA)QYFP[dA]ILC-NH2; disulfide 1-10)
6 | < 1.58 | ≤ 10 | – | CC(C)CCC(=O)N[C@H]1CSSC[C@@H](C(N)=O)NC(=O)[C@H](CC(C)C)NC(=O)[C@H](CC2CCCCC2)NC(=O)[C@@H](C)NC(=O)[C@@H]2CCCN2C(=O)[C@H](Cc2ccccc2)NC(=O)[C@H](Cc2ccc(O)cc2)NC(=O)[C@H](CCC(N)=O)NC(=O)[C@H](CCCNC(N)=O)NC1=O [UPAR-326, iHex-[Cys-Cit-Gln-Tyr-Phe-Pro-ala-Cha-Leu-Cys]-NH2] ({Pentanoyl(4-Me)}-C[Cit]QYFP[dA][Cha]LC-NH2; disulfide 1-10)
7 | – | ≥ 126 | > 100 | CCCCC(=O)N[C@H]1CCNC(=O)CC[C@@H](C(N)=O)NC(=O)[C@H](CCC)NC(=O)[C@H]([C@@H](C)CC)NC(=O)[C@@H]2C[C@@H](O)CN2C(=O)[C@@H]2CCCN2C(=O)[C@H](Cc2ccccc2)NC(=O)[C@H](Cc2ccc(O)cc2)NC(=O)[C@H](CCC(N)=O)NC(=O)[C@H](CCCNC(=N)N)NC1=O [UPAR-390, Pent-[Dab-Arg-Gln-Tyr-Phe-Pro-Hyp-Ile-Nva-Glu]-NH2] (Pentanoyl-[Dab]RQYFP[Hyp]I[Nva]E-NH2; lactam 1-10)
8 | < 1.58 | ≤ 10 | – | CC[C@H](C)[C@@H]1NC(=O)[C@@H](C)NC(=O)[C@@H]2CCCN2C(=O)[C@H](Cc2cccc(Cl)c2)NC(=O)[C@H](Cc2ccc(O)cc2)NC(=O)[C@H](CCC(N)=O)NC(=O)[C@H](CCCNC(N)=O)NC(=O)[C@@H](NC(=O)CCC(C)C)CSSC[C@@H](C(N)=O)NC(=O)[C@H](CC(C)C)NC1=O [UPAR-227, iHex-[Cys-Cit-Gln-Tyr-Mcf-Pro-ala-Ile-Leu-Cys]-NH2] ({Pentanoyl(4-Me)}-C[Cit]QY[Phe(3-Cl)]P[dA]ILC-NH2; disulfide 1-10)
9 | < 1.58 | ≤ 10 | – | CC[C@H](C)[C@@H]1NC(=O)[C@@H](C)NC(=O)[C@@H]2CCCN2C(=O)[C@H](Cc2ccccc2)NC(=O)[C@H](Cc2ccc(O)cc2)NC(=O)[C@H](CCCCNC(=O)CN2CCN(CC(=O)O)CCN(CC(=O)O)CCN(CC(=O)O)CC2)NC(=O)[C@H](CCCNC(N)=O)NC(=O)[C@@H](NC(=O)CCC(C)C)CSSC[C@@H](C(N)=O)NC(=O)[C@H](CC(C)C)NC1=O [UPAR-256, iHex-[Cys-Cit-Lys(DOTA)-Tyr-Phe-Pro-ala-Ile-Leu-Cys]-NH2] ({Pentanoyl(4-Me)}-C[Cit]K(DOTA)YFP[dA]ILC-NH2; disulfide 1-10)
10 | < 1.58 | ≤ 10 | – | CCCCC(=O)N[C@H]1CSSC[C@@H](C(N)=O)NC(=O)[C@H](CCC)NC(=O)[C@H]([C@@H](C)CC)NC(=O)[C@@H]2C[C@@H](O)CN2C(=O)[C@@H]2CCCN2C(=O)[C@H](Cc2ccccc2)NC(=O)[C@H](Cc2ccc(O)cc2)NC(=O)[C@H](CCC(N)=O)NC(=O)C2(CCNCC2)NC1=O [UPAR-186, Pent-[Cys-Apc-Gln-Tyr-Phe-Pro-Hyp-Ile-Nva-Cys]-NH2] (Pentanoyl-C[Api]QYFP[Hyp]I[Nva]C-NH2; disulfide 1-10)
11 | < 1.58 | ≤ 10 | – | CC[C@H](C)[C@@H]1NC(=O)[C@@H]2C[C@@H](O)CN2C(=O)[C@@H]2CCCN2C(=O)[C@H](Cc2ccccc2)NC(=O)[C@H](Cc2ccc(O)cc2)NC(=O)[C@H](CCC(N)=O)NC(=O)[C@H](CCCCNC(=N)N)NC(=O)[C@@H](NC(=O)CCC(C)C)CSSC[C@@H](C(N)=O)NC(=O)[C@H](CC(C)C)NC1=O [UPAR-167, iHex-[Cys-Har-Gln-Tyr-Phe-Pro-Hyp-Ile-Leu-Cys]-NH2] ({Pentanoyl(4-Me)}-C[hArg]QYFP[Hyp]ILC-NH2; disulfide 1-10)

Row | SMILES | Kd [1] [nM] | IC50 [2] [nM] | Kd ([1]; single cycle kinetics) [nM]
12 | CCCCOC(=O)N[C@H]1CSSC[C@@H](C(N)=O)NC(=O)[C@H](CCC)NC(=O)[C@H]([C@@H](C)CC)NC(=O)[C@@H]2C[C@@H](O)CN2C(=O)[C@@H]2CCCN2C(=O)[C@H](Cc2ccccc2)NC(=O)[C@H](Cc2ccc(O)cc2)NC(=O)[C@H](CCCCNC(=O)CN2CCN(CC(=O)O)CCN(CC(=O)O)CCN(CC(=O)O)CC2)NC(=O)[C@H]([C@@H](C)O)NC1=O [UPAR-248, Butoc-[Cys-Thr-Lys(DOTA)-Tyr-Phe-Pro-Hyp-Ile-Nva-Cys]-NH2] (Butoxycarbonyl-CTK(DOTA)YFP[Hyp]I[Nva]C-NH2; disulfide 1-10) | < 1.58 | ≤ 10 | –

Reference: patent publication EP4610269A1, “UROKINASE PLASMINOGEN ACTIVATOR SURFACE RECEPTOR (UPAR) LIGANDS FOR DIAGNOSTIC OR THERAPEUTIC USE” (3B Pharmaceuticals GmbH, priority 2024, dated 2025)
